The values below come from patent US20250163044A1, “COMPOUNDS” (PSYLO PTY LTD, priority 2021, published 2025).

Assay type in all cases: cell-based
One test deals with T1, 5-HT2A receptor (Homo sapiens, UniProt P28223).
T1 construct: host or cells: HEK293
Description: FLIPR Ca2+ flux functional assay, agonist activity at 5-HT2A. The note with it: HEK293 cells, Ca2+ flux; for EC50: read-out: 5-HT2A EC50. As to the method: (§1) Activity at 5-HT2A, 5-HT2B and 5-HT2C receptors was determined using a FLIPR Ca2+ flux assay at WuXi AppTec Co. Ltd. (Hong Kong) Discovery Biology Unit according to their standard protocols. Briefly, stably transfected cells expressing the receptor of interest (HEK293 for 5-HT2A and 5-HT2C; CHO-K1 for 5-HT2B) were grown and plated in a 384 well plate and incubated at 37° C. and 5% CO2 overnight. A 250 mM stock solution of probenecid in FLIPR calcium assay buffer (10 mL) was freshly prepared and combined with a fluorescent dye (Fluo-4 Direct) to give a final assay concentration of 2.5 mM. Reference compounds were 4-fold serially diluted and the screening compounds were 3-fold serially diluted in 100% DMSO for 10 points using Agilent Bravo, and 750 nL was added to a 384 well compound plate using Echo along with 30 μL assay buffer. The fluorescent dye was then added to the assay plate along with assay buffer to a final volume of 40 μL. The cell plate was incubated for 50 min at 37° C. and 5% CO2 and placed into the FLIPR Tetra along with the compound plate. 10 μL of references and compounds were then transferred from the compound plate into the cell plate and the fluorescent signal was read.
Background: A change in cytosolic calcium serves as a functional read-out for many receptors and channels.

For the next test, the target named is T2, 5-HT2B receptor (Homo sapiens, UniProt P41595).
T2 construct: host or cells: CHO-K1
T2 sequence (P41595 whole entry): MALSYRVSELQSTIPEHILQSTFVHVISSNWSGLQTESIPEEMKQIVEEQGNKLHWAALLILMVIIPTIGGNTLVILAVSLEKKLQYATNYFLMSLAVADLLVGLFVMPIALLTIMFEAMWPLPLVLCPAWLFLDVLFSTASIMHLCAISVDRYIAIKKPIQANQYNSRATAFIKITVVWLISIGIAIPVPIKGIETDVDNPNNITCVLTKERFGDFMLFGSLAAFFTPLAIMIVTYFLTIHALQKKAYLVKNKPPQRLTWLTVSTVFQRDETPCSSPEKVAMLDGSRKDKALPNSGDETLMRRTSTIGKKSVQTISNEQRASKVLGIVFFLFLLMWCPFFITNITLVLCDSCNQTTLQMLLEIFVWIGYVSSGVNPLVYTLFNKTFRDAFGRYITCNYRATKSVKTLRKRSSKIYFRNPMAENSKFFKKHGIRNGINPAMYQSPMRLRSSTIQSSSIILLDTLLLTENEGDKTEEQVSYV
Description: FLIPR Ca2+ flux functional assay, agonist activity at 5-HT2B. The settings on record: CHO-K1 cells, Ca2+ flux; for EC50: read-out: 5-HT2B EC50. The procedure:
as §1

In another test the target is T3, 5-HT2C receptor (Homo sapiens, UniProt P28335).
T3 construct: host or cells: HEK293
T3 sequence (P28335 33-458): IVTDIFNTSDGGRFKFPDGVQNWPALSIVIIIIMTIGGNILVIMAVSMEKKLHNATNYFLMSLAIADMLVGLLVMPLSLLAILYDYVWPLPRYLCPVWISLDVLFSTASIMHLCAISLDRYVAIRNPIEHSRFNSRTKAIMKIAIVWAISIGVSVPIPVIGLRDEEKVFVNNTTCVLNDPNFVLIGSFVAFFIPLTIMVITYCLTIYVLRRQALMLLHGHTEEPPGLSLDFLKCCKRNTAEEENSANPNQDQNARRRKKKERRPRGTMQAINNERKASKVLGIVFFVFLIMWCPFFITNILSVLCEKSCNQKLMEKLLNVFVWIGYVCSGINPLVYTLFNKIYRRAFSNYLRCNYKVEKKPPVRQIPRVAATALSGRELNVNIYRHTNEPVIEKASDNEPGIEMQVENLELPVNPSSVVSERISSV
Nature of the test: FLIPR Ca2+ flux functional assay, agonist activity at 5-HT2C. The note with it: HEK293 cells, Ca2+ flux; for EC50: read-out: 5-HT2C EC50. As to the method: as §1

Molecules are shown by their SMILES.

T1 sequence (P28223 whole entry): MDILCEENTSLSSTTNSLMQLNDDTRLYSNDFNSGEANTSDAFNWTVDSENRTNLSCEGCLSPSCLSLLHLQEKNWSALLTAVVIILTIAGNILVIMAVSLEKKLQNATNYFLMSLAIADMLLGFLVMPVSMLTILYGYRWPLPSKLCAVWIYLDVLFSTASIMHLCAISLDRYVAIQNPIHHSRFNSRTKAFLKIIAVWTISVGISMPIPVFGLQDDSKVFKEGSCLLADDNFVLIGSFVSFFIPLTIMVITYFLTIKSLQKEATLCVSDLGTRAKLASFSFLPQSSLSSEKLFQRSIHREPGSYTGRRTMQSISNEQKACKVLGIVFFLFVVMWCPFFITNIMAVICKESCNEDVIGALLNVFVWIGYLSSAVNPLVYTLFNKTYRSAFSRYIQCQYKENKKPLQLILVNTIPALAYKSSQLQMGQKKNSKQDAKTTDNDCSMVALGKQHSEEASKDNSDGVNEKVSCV

What is called Emax is the size of the effect at its maximum, as opposed to the concentration needed. Broadly, the EC50 is the concentration at which the effect is half-maximal. Regarding `Cc1ccnc2[nH]cc(CCN(C)C)c12` [Example P-30, N,N-dimethyl-2-(4-methyl-1H-pyrrolo[2,3-b]pyridin-3-yl)ethan-1-amine], the Emax on 5-HT2A receptor turned out to be 56.6%; on 5-HT2B receptor it was 0.03%; at 5-HT2C receptor it was 1.04%. Besides, the EC50 on 5-HT2A receptor was 0.387 µM; on 5-HT2B receptor, more than 10 µM; on 5-HT2C receptor it was more than 10 µM.

For `CCN(C)CCc1c[nH]c2nccc(C)c12` [Example P-31, N-ethyl-N-methyl-2-(4-methyl-1H-pyrrolo[2,3-b]pyridin-3-yl)ethan-1-amine], the Emax at 5-HT2A receptor was 54.5%; at 5-HT2B receptor, 1.01%; on 5-HT2C receptor, 0.01%. The figures for the EC50 at 5-HT2A receptor, at 5-HT2B receptor and on 5-HT2C receptor were 1.02 µM, more than 10 µM and more than 10 µM, respectively.

On to `CN(C)CCc1c[nH]c2nccc(F)c12` [Example P-32, N,N-dimethyl-2-(4-fluoro-1H-pyrrolo[2,3-b]pyridin-3-yl)ethan-1-amine], for which the Emax on 5-HT2A receptor came to 57.8%; on 5-HT2B receptor, 0.14%; at 5-HT2C receptor, 0.61%. Also, the EC50 is 0.414 µM on 5-HT2A receptor, more than 10 µM at 5-HT2B receptor and more than 10 µM at 5-HT2C receptor.

Regarding `CCN(C)CCc1c[nH]c2nccc(F)c12` [Example P-33, N-ethyl-N-methyl-2-(4-fluoro-1H-pyrrolo[2,3-b]pyridin-3-yl)ethan-1-amine], the Emax at 5-HT2A receptor amounted to 54.7%; at 5-HT2B receptor, 0.01%; on 5-HT2C receptor it was 0.33%. In addition, the figures for the EC50 on 5-HT2A receptor, on 5-HT2B receptor and on 5-HT2C receptor were 0.641 µM, more than 10 µM and more than 10 µM, respectively.

As to `CCN(CC)CCc1c[nH]c2ccnc(OC)c12` [Example P-34, N,N-diethyl-2-(4-methoxy-1H-pyrrolo[3,2-c]pyridin-3-yl)ethan-1-amine], the Emax at 5-HT2A receptor was found to be 82.6%; on 5-HT2B receptor it was 14.7%; on 5-HT2C receptor it was 91.7%. In addition, the EC50 at 5-HT2A receptor is 0.15 µM; at 5-HT2B receptor, more than 10 µM; on 5-HT2C receptor, 0.682 µM.

`CCCN(CCC)CCc1c[nH]c2ccnc(OC)c12` [Example P-35, N,N-dipropyl-2-(4-methoxy-1H-pyrrolo[3,2-c]pyridin-3-yl)ethan-1-amine]: the figures for the Emax on 5-HT2A receptor, on 5-HT2B receptor and on 5-HT2C receptor were 82.2%, 74.7% and 55.6%, respectively. The EC50 stood at 0.079 µM on 5-HT2A receptor, 0.0785 µM on 5-HT2B receptor and 7.18 µM at 5-HT2C receptor.

Turning to `COc1nccc2[nH]cc(CCN(C(C)C)C(C)C)c12` [Example P-36, N,N-diisopropyl-2-(4-methoxy-1H-pyrrolo[3,2-c]pyridin-3-yl)ethan-1-amine], the figures for the Emax at 5-HT2A receptor, at 5-HT2B receptor and on 5-HT2C receptor were 114%, 48.9% and 38.4%, respectively. Also, the EC50 at 5-HT2A receptor is 0.0771 µM; at 5-HT2B receptor it was 0.0964 µM; at 5-HT2C receptor, more than 10 µM.

`CCN(C)CCc1c[nH]c2ccnc(OC)c12` [Example P-37, N-ethyl-2-(4-methoxy-1H-pyrrolo[3,2-c]pyridin-3-yl)-N-methylethan-1-amine]: the Emax at 5-HT2A receptor turned out to be 82.8%; at 5-HT2B receptor, 2.6%; at 5-HT2C receptor, 105%. The figures for the EC50 on 5-HT2A receptor, on 5-HT2B receptor and on 5-HT2C receptor were 0.0868 µM, more than 10 µM and 0.533 µM, respectively.

For the compound `COc1nccc2[nH]cc(CCN(C)C(C)C)c12` [Example P-38, N-(2-(4-methoxy-1H-pyrrolo[3,2-c]pyridin-3-yl)ethyl)-N-methylpropan-2-amine], the Emax worked out at 83.1% at 5-HT2A receptor, 19.6% at 5-HT2B receptor and 70.2% on 5-HT2C receptor. Also, the half-maximal effective concentration (EC50) was found to be 0.0777 µM at 5-HT2A receptor, 0.61 µM on 5-HT2B receptor and 1.92 µM on 5-HT2C receptor.

For `CCN(CC)CCc1n[nH]c2cccc(OC)c12` [Example P-42, 2-(4-methoxy-1H-indazol-3-yl)-N,N-diethylethan-1-amine], the EC50 at 5-HT2A receptor was 2.98 µM; at 5-HT2B receptor, more than 10 µM; on 5-HT2C receptor, 3.49 µM.

Take `CCN(CC)CCc1n[nH]c2cccc(O)c12` [Example P-43, 3-(2-(diethylamino)ethyl)-1H-indazol-4-ol]: the EC50 is 2.18 µM on 5-HT2A receptor, more than 10 µM at 5-HT2B receptor and more than 10 µM on 5-HT2C receptor.

As for `CCCN(CCC)CCc1n[nH]c2cccc(OC)c12` [Example P-44, 2-(4-methoxy-1H-indazol-3-yl)-N,N-dipropylethan-1-amine], the EC50 at 5-HT2A receptor was 0.259 µM; at 5-HT2B receptor, 0.49 µM; on 5-HT2C receptor it was 1.7 µM.

Turning to `CCCN(CCC)CCc1n[nH]c2cccc(O)c12` [Example P-45, 3-(2-(dipropylamino)ethyl)-1H-indazol-4-ol], the EC50 on 5-HT2A receptor is 0.16 µM; at 5-HT2B receptor it was more than 10 µM; at 5-HT2C receptor, more than 10 µM.

As to `CCN(CC)CCc1n[nH]c2ccc(OC)cc12` [Example P-48, N,N-diethyl-2-(5-methoxy-1H-indazol-3-yl)ethan-1-amine], the figures for the EC50 on 5-HT2A receptor, at 5-HT2B receptor and at 5-HT2C receptor were 6.99 µM, more than 10 µM and more than 10 µM, respectively.

For `CCCN(CCC)CCc1n[nH]c2ccc(OC)cc12` [Example P-49, N,N-dipropyl-2-(5-methoxy-1H-indazol-3-yl)ethan-1-amine], the EC50 was 1.39 µM on 5-HT2A receptor, more than 10 µM on 5-HT2B receptor and more than 10 µM on 5-HT2C receptor.

In the case of `CCN(C)CCc1n[nH]c2ccc(OC)cc12` [Example P-51, N-ethyl-2-(5-methoxy-1H-indazol-3-yl)-N-methylethan-1-amine], the EC50 on 5-HT2A receptor was 0.526 µM; on 5-HT2B receptor it was more than 10 µM; on 5-HT2C receptor, more than 10 µM.

As to `COc1ccc2[nH]nc(CCN(C)C(C)C)c2c1` [Example P-52, N-(2-(5-methoxy-1H-indazol-3-yl)ethyl)-N-methylpropan-2-amine], the EC50 on 5-HT2A receptor was 1.84 µM; at 5-HT2B receptor, more than 10 µM; at 5-HT2C receptor it was more than 10 µM.

Take `COc1cccc2[nH]nc(CCN(C)C)c12` [Example P-55, 2-(4-methoxy-1H-indazol-3-yl)-N,N-dimethylethan-1-amine]: the results for the EC50 on 5-HT2A receptor, on 5-HT2B receptor and at 5-HT2C receptor were 0.256 µM, more than 10 µM and 0.367 µM, respectively.

In the case of `CN(C)CCc1n[nH]c2cccc(O)c12` [Example P-56, 3-(2-(dimethylamino)ethyl)-1H-indazol-4-ol], the Emax on 5-HT2A receptor was 50.5%; at 5-HT2B receptor, -0.39%; at 5-HT2C receptor it was 63.6%. Besides, the EC50 on 5-HT2A receptor is 0.794 µM; on 5-HT2B receptor, more than 10 µM; on 5-HT2C receptor it was 1.26 µM.
